pIC50: −log10 of the molar value.
How the values were obtained:
5-LOX = molecular target: T1, 5-LOX (Homo sapiens, UniProt P09917); test: Lipoxygenase UV-Vis assay, 5-LOX crude extract; format: biochemical; conditions: estimated from one inhibitor point at 20 µM; 10 µM AA
T1 construct: made in house
T1 sequence (P09917 1-674): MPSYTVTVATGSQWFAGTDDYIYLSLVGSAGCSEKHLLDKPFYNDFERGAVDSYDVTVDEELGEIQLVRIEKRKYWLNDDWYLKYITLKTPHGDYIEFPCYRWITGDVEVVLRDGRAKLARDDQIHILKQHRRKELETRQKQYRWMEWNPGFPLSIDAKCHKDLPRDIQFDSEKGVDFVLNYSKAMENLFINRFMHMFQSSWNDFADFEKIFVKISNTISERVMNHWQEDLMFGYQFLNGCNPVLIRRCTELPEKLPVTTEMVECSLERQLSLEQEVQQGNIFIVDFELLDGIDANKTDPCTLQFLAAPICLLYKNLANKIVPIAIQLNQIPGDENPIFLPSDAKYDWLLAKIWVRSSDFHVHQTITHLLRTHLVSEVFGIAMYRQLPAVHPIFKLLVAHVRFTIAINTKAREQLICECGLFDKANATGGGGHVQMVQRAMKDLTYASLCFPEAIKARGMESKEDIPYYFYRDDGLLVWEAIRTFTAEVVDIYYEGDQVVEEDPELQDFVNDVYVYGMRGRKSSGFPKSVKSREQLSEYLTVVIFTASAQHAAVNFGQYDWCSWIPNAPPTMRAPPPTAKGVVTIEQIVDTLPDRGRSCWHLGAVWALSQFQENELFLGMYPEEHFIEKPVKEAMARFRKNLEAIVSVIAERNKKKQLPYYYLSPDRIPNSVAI
Experimental: (§1) Human leukocyte 5-lipoxygenase (5-LOX) was expressed as a non-tagged protein and used as a crude ammonium sulfate protein fraction, as published previously, [20].
(§2) The reactions were initiated by adding 200 nM 15-LOX-2, 30 nM 12-LOX, 40 nM 15-LOX-1, or approximately 100–300 nM (5–10 µL) of 5-LOX crude extract to a cuvette with 2 mL reaction buffer, constantly stirred using a magnetic stir bar at room temperature (22°C). Reaction buffers used for various LOX isozymes were as follows: 25 mM HEPES (pH 7.3), 0.3 mM CaCl2, 0.1 mM EDTA, 0.2 mM ATP, 0.01% Triton X-100, 10 µM AA for the crude, ammonium sulfate precipitated 5-LOX; and 25 mM HEPES (pH 7.5), 0.01% Triton X-100, 10 µM AA for 15-LOX-2, 15-LOX-1, and 12-LOX. The substrate concentration was quantitatively determined by allowing the enzymatic reaction to go to completion in the presence of 15-LOX-2. […] The data were then plotted against inhibitor concentration, followed by a hyperbolic saturation curve fit (assuming total enzyme concentration [E]≪IC50). […] All inhibitors were stored at −20°C in DMSO. NDGA was utilized as positive control for the selectivity assays for the various LOX isozymes.

12-LOX = molecular target: T2, 12-LOX (Homo sapiens, UniProt P18054); test: Lipoxygenase UV-Vis assay, 12-LOX; format: biochemical; conditions: estimated from one inhibitor point at 20 µM; 10 µM AA
T2 construct: His6 (N); made in house
T2 sequence (P18054 1-663): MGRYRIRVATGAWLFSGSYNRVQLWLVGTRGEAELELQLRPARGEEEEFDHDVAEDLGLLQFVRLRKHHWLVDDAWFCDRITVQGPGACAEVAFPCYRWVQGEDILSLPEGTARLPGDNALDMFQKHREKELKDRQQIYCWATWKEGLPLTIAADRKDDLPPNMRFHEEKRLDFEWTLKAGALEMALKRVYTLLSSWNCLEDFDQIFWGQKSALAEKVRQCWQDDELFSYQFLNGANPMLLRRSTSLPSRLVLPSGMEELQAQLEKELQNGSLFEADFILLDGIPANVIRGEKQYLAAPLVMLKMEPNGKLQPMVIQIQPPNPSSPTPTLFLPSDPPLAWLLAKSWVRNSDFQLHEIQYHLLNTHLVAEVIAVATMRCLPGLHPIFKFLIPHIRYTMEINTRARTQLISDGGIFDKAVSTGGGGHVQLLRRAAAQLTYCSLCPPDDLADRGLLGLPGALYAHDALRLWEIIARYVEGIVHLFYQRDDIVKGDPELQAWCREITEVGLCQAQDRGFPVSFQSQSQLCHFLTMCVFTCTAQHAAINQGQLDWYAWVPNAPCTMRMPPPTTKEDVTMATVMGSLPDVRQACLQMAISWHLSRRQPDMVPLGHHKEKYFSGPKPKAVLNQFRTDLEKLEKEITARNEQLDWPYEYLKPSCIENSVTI
Experimental: as §1, §2

SMILES	pIC50 (5-LOX)	pIC50 (12-LOX)
Cc1ccc(CSc2ncn(-c3ccccc3)n2)cc1 [MLS000536924]	< 4.00	< 4.00
Clc1ccc(-c2nnc(C3CCCCC3)o2)cc1 [MLS000545091]	< 4.30	< 4.00
